# Laboratory results reported in patent publication US20240174714A1, “TREATMENT OF SKIN DISORDERS” (priority 2021, published 2024).
# Square brackets hold non-standard residues; d marks the D form. Peptide text beside a SMILES is read from it. * marks the point of attachment. NH(1-CH2NMe2-cBu) = CN(C)CC1(N*)CCC1; Benzoyl(4-F) = O=C(c1ccc(F)cc1)*; hCha = N[C@@H](CCC1CCCCC1)C(=O)O; Aib = CC(C)(N)C(=O)O; βAla = NCCC(=O)O
# Key:
# [1] = system: Staphylococcus epidermidis ATCC 12228; experiment: MIC broth microdilution, method 1; assay type: cell-based; details: 6027 acetate
# [2] = system: Streptococcus pyogenes ATCC 19615; experiment: MIC broth microdilution, method 1; assay type: cell-based; details: CAMHB II, 5% LHB, 1 day at 36° C., 6027 acetate
# [3] = system: Staphylococcus aureus ATCC 33591; experiment: microbe, parasite or virus in culture; assay type: cell-based; details: ATCC 33591, Methicillin resistant; 6027 acetate
# [4] = system: Clostridium difficile ATCC BAA-1805; details: RCM, anaerobic, 2 days at 36° C., 6027 acetate
# Protocol: The antibacterial activity of inventive compounds was determined in duplicate in a Minimum Inhibitory Concentration (MIC) assay.
# The antibacterial activity of 6027 acetate was measured using the in vitro broth microdilution assay under assay conditions described by the Clinical and Laboratory Standards Institute. […] Pre-formulated DMSO stock solution (26.67 mg/mL) was provided by sponsor. The 26.67 mg/mL stock solution was then diluted in DMSO to prepare a 6.4 mg/mL working stock solution. The 6.4 mg/mL working stock solution was diluted by 2-fold serial titrations in DMSO, for a total of 11 test concentrations. A 4 μl aliquot of each dilution was added to 196 of broth medium seeded with the organism suspension in wells of a 96 well plate (bacterial count: 2 −8×10^5 colony forming units/mL final). The final volume was 200 μl in each well and the final DMSO concentration was 2 percent. Test concentrations were 128 to 0.125 μg/mL.
# Following incubation, the plates were visually examined, and wells were scored for growth or complete growth inhibition to define the minimum inhibitory concentration. […] Vehicle-control and Vancomycin or Linezolid, as depicted at Table 8, were used as blank and positive controls, respectively.
# [5] = system: Staphylococcus aureus ATCC BAA-1717; experiment: microbe, parasite or virus in culture; assay type: cell-based; details: ATCC BAA-1717, Methicillin resistant; CAMHB II, 1 day at 36° C.; 6027 acetate
# [6] = system: Staphylococcus aureus ATCC BAA-1556; experiment: microbe, parasite or virus in culture; assay type: cell-based; details: ATCC BAA-1556
# [7] = system: Staphylococcus aureus ATCC 43300, MRSA; assay type: cell-based; details: ATCC 43300, 18 h
# Protocol: The antibacterial activity of inventive compounds was evaluated in duplicate in a further Minimum Inhibitory Concentration (MIC) assay.
# Bacteria were cultured in Cation-adjusted Mueller Hinton broth (CAMHB) at 37° C. overnight. A sample of each culture was then diluted 40-fold in fresh broth and incubated at 37° C. for 1.5-3 h. The resultant mid-log phase cultures were diluted (CFU/mL measured by OD600), then added to each well of the compound containing plates, giving a cell density of 5×10^5 CFU/mL and a total volume of 50 μL. All the plates were covered and incubated at 37° C. for 18 h without shaking.
# Samples were prepared in DMSO and serially diluted 2 fold 8 times. Each sample concentration was prepared in 384-well plates, non-binding surface plate (NBS; Corning 3640) for the bacterial strain ATCC 43300, MRSA. The final DMSO concentration was at a maximum of 0.5%.
# Inhibition of bacterial growth was determined measuring absorbance at 600 nm (OD600), using a Tecan M1000 Pro monochromator plate reader. The percentage of growth inhibition was calculated for each well, using the negative control (media only) and positive control (bacteria without inhibitors) on the same plate as references. […] Vancomycin was used as positive bacterial inhibitor standards.
# physchem [8] = details: water
# [9] = system: Staphylococcus aureus NARSA NRS119; experiment: microbe, parasite or virus in culture; assay type: cell-based; details: NARSA NRS119
# [10] = system: intracellular Leishmania donovani MHOM-ET-67/L82 amastigotes; experiment: In vitro antiprotozoal assay, intracellular amastigotes; assay type: cell-based; details: intracellular amastigotes; read-out: L.don.InMac IC50
# Protocol: (§3) The testing of the inventive compounds against Leishmania donovani (strain MHOM/ET/67/L82) was performed in 96 well plates at concentrations in serial dilutions. Tests were done in triplicate.
# physchem [11] = details: octanol/water
# [12] = system: Staphylococcus aureus NARSA VRS2; experiment: microbe, parasite or virus in culture; assay type: cell-based
# [13] = system: axenic Leishmania donovani MHOM-ET-67/L82 amastigotes; experiment: In vitro antiprotozoal assay, axenic amastigotes; assay type: cell-based; details: axenic amastigotes; read-out: L.don.ax. IC50
# Protocol: as §3
# [14] = system: Trichophyton rubrum (ATCC 10218); assay type: cell-based
# Protocol: (§1) Pre-formulated compound solution was diluted in 100% DMSO to prepare a 1.6 mg/mL working stock solution. […] Test concentration range was 0.032 to 32 μg/mL.
# (§2) Vehicle-control and an active reference agent were used as blank and positive controls.
# [15] = system: Trichophyton mentagrophytes (ATCC 9533); assay type: cell-based
# Protocol: as §1, §2
# [16] = system: Staphylococcus aureus ECL 2963646; experiment: microbe, parasite or virus in culture; assay type: cell-based
# [17] = system: Staphylococcus aureus NARSA NRS383; experiment: microbe, parasite or virus in culture; assay type: cell-based; details: NARSA NRS383
# [18] = system: Staphylococcus aureus NARSA NRS127; experiment: microbe, parasite or virus in culture; assay type: cell-based; details: NARSA NRS127
structure (smiles),measurement,setting,value
"CC(C)C[C@H](NC(=O)[C@H](CCC1CCCCC1)NC(=O)[C@@H]1CCCN1C(=O)c1ccc(F)cc1)C(=O)NC(C)(C)C(=O)N[C@@H](CC(C)C)C(=O)N[C@@H](CC(C)C)C(=O)NC(C)(C)C(=O)NC(C)(C)C(=O)NCCC(=O)NC1(CN(C)C)CCC1 [Compound 6027, (2S)-2-[(2S)-4-cyclohexyl-2-{[(2S)-1-(4-fluorobenzoyl)pyrrolidin-2-yl]formamido}butanamido]-N-(1-{[(1S)-1-{[(1S)-1-({1-[(1-{[2-({1-[(dimethylamino)methyl]cyclobutyl}carbamoyl)ethyl]carbamoyl}-1-methylethyl)carbamoyl]-1-methylethyl}carbamoyl)-3-methylbutyl]carbamoyl}-3-methylbutyl]carbamoyl}-1-methylethyl)-4-methylpentanamide] ({Benzoyl(4-F)}-P[hCha]L[Aib]LL[Aib][Aib][βAla]-{NH(1-CH2NMe2-cBu)})",MIC of 6027,[1],2 µg/mL
same,MIC of 6027,[2],4 µg/mL
same,MIC of 6027,[3],4 µg/mL
same,MIC of 6027,[4],0.25 µg/mL
same,MIC of 6027,[5],1 µg/mL
same,MIC of 6027,[6],2 µg/mL
same,MIC,[7],2 µg/mL
same,solubility,physchem [8],22 µg/mL
same,MIC of 6027,[9],2 µg/mL
same,IC50,[10],54.2 nM
same,logD,physchem [11],4.56
same,MIC of 6027,[12],2 µg/mL
same,IC50,[13],5.7 nM
same,T. rubrum (ATCC 10218) MIC,[14],32 µg/mL
same,T. mentagrophytes (ATCC 9533) MIC,[15],16 µg/mL
same,MIC of 6027,[16],2 µg/mL
same,MIC of 6027,[17],2 µg/mL
same,MIC of 6027,[18],2 µg/mL
